According to article PMC9478638 (Proceedings of the National Academy of Sciences of the …, 2022):

Legend:
E. coli Dgt = target: T1, E. coli Dgt (Escherichia coli, UniProt P15723); test: PNP/xanthine oxidase coupled dGTPase assay, A297; type: biochemical
T1 sequence (P15723 1-505): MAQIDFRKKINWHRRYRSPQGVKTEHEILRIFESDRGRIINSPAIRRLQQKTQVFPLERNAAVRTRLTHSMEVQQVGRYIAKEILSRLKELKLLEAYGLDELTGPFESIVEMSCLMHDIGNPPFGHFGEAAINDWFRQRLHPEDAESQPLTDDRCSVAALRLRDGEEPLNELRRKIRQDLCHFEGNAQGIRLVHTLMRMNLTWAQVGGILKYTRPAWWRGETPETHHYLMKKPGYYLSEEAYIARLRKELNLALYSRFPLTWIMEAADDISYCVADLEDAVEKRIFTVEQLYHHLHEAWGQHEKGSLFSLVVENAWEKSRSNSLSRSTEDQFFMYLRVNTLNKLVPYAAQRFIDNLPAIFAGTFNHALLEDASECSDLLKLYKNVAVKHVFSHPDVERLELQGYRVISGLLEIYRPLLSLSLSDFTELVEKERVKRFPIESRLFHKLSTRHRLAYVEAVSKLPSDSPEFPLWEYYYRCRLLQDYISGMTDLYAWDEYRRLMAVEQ

Dgt–Gp1.2 complex = target: T2, Dgt–Gp1.2 complex (Escherichia coli; Escherichia phage T7, UniProt P03780+P15723); test: PNP/xanthine oxidase coupled dGTPase assay, A297; type: biochemical
T2 sequence (P15723 1-505): T1 sequence (P15723 1-505)
T2 sequence (P03780 2-85): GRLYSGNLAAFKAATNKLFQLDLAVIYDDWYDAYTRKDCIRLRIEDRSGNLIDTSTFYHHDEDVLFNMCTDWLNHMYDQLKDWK

Ki (E. coli Dgt): 120 ± 50 µM
IC50 (Dgt–Gp1.2 complex): 0.31 ± 0.05 µM
Structure (SMILES): Nc1nc2c(ncn2[C@@H]2O[C@H](COP(=O)(O)OP(=O)(O)OP(=O)(O)O)[C@@H](O)[C@H]2O)c(=O)[nH]1 [GTP]
